Source: PMC3740399, “Carfilzomib in multiple myeloma patients with renal impairment: pharmacokinetics and safety” (Leukemia, 2013)

Assays:
[1] = test system: proteasome chymotrypsin-like activity; test: Proteasome chymotrypsin-like activity in whole blood (RBC) and PBMC, fluorogenic substrate (LLVY-AMC) assay; type: in vivo, human
Experimental: Proteasome chymotrypsin-like activity was measured in whole-blood (red blood cells, RBC) and isolated peripheral blood mononuclear cell samples using a fluorogenic-based substrate assay as previously described.[15] Blood for PDn analysis was collected before carfilzomib dosing and 1 h after carfilzomib dosing on days 1, 2 and 8 of Cycle 1 and on day 1 of Cycle 2.
Figure 2 Proteasome inhibition following the first dose of carfilzomib. Proteasome activity was measured in whole-blood and peripheral blood mononuclear cells before and 1 h after the first dose of 15 mg/m^2 carfilzomib on day 1 of Cycle 1 (using LLVY-AMC substrate). Data are presented as mean activity (±s.e.m.) relative to pre-dose values for each group. The number of patient samples for each Group is noted. Group 1, normal renal function; Group 2, mild renal impairment; Group 3, moderate renal impairment; Group 4, severe renal impairment; Group 5, chronic dialysis.

[2] = test system: relapsed and/or refractory multiple myeloma; test: Efficacy: best response (IMWG criteria with EBMT minimal response); type: in vivo, human; settings: for Overall response rate: PR or better
Experimental: Patients who received at least 1 cycle of carfilzomib and had at least one post-baseline assessment for disease response were included in the efficacy analysis. Each evaluable patient's best response to treatment over the course of the study was evaluated by the investigator and sponsor using the International Myeloma Working Group Uniform Response Criteria, modified to include minimal response defined per the European Group for Blood and Marrow Transplantation.[17], [18] Responses assessed by the investigators at the end of the study are reported here. The overall response rate was defined as the proportion of PR or better responses, and the 95% Clopper-Pearson exact binomial CI was calculated. The duration of response was calculated as the time from the first evidence of a PR or better until confirmation of disease progression. Median time to progression and progression-free survival were assessed among all patients with >stable disease (s.d.). For progression-free survival, deaths due to causes other than disease progression were censored.

[3] = All patients, n=28, patients who received dexamethasone ⩾20 mg before carfilzomib doses
[4] = All patients, n=47, all patients with response assessment
[5] = Group 1 (normal renal function), n=7, patients who received dexamethasone ⩾20 mg before carfilzomib doses
[6] = Group 1 (normal renal function), n=11, all patients with response assessment
[7] = Group 2 (mild impairment), n=8, patients who received dexamethasone ⩾20 mg before carfilzomib doses
[8] = Group 2 (mild impairment), n=11, all patients with response assessment
[9] = Group 3 (moderate impairment), n=4, patients who received dexamethasone ⩾20 mg before carfilzomib doses
[10] = Group 3 (moderate impairment), n=9, all patients with response assessment
[11] = Group 4 (severe impairment), n=5, patients who received dexamethasone ⩾20 mg before carfilzomib doses
[12] = Group 4 (severe impairment), n=8, all patients with response assessment
[13] = Group 5 (chronic dialysis), n=4, patients who received dexamethasone ⩾20 mg before carfilzomib doses
[14] = Group 5 (chronic dialysis), n=8, all patients with response assessment

CC(C)C[C@H](NC(=O)[C@H](CCc1ccccc1)NC(=O)CN1CCOCC1)C(=O)N[C@@H](Cc1ccccc1)C(=O)N[C@@H](CC(C)C)C(=O)[C@@]1(C)CO1 [carfilzomib]
inhibition of proteasome CT-L activity from pre-dose levels ([1]; RBCs and peripheral blood mononuclear cells, one hour after the first dose, 15 mg/m^2, range across groups): 73–87%
recovery of proteasome CT-L activity in RBCs ([1]; by the start of Cycle 2, cumulative inhibition during first treatment cycle): little to no recovery
recovery of proteasome activity in peripheral blood mononuclear cells ([1]; day 8 (5 days after the most recent dose) and beginning of Cycle 2 (12 days after dosing)): complete or near to complete
Complete response [2, 3]: 0 n (%)
Minimal response [2, 3]: 3 (10.7) n (%)
Progressive disease [2, 3]: 5 (17.9) n (%)
Stable disease [2, 3]: 10 (35.7) n (%)
Very good PR [2, 3]: 0 n (%)
Overall response rate ([2]; All patients, n=47): 12 (25.5) n (%)
Complete response [2, 4]: 0 n (%)
Progressive disease [2, 4]: 10 (21.3) n (%)
Stable disease [2, 4]: 21 (44.7) n (%)
Very good PR [2, 4]: 0 n (%)
Duration of response, median (95% CI) ([2]; All patients, NE, not estimated due to censoring): 7.9 months
Complete response [2, 5]: 0 n (%)
Minimal response [2, 5]: 1 n (%)
Progressive disease [2, 5]: 0 n (%)
Stable disease [2, 5]: 3 (42.9) n (%)
Very good PR [2, 5]: 0 n (%)
Minimal response [2, 6]: 1 (9.1) n (%)
Progressive disease [2, 6]: 1 (9.1) n (%)
Duration of response, median (95% CI) ([2]; Group 1 (normal renal function), NE, not estimated due to censoring): NE (2.0–NE)
Complete response [2, 7]: 0 n (%)
Minimal response [2, 7]: 1 (12.5) n (%)
Progressive disease [2, 7]: 3 (37.5) n (%)
Stable disease [2, 7]: 1 (12.5) n (%)
Very good PR [2, 7]: 0 n (%)
Overall response rate ([2]; Group 2 (mild impairment), n=11): 3 (27.3) n (%)
Complete response [2, 8]: 0 n (%)
Minimal response [2, 8]: 1 (9.1) n (%)
Stable disease [2, 8]: 3 (27.3) n (%)
Very good PR [2, 8]: 0 n (%)
Duration of response, median (95% CI) ([2]; Group 2 (mild impairment), NE, not estimated due to censoring): NE (4.2–NE)
Complete response [2, 9]: 0 n (%)
Minimal response [2, 9]: 0 n (%)
Progressive disease [2, 9]: 0 n (%)
Stable disease [2, 9]: 3 (75.0) n (%)
Very good PR [2, 9]: 0 n (%)
Overall response rate ([2]; Group 3 (moderate impairment), n=9): 2 (22.2) n (%)
Complete response [2, 10]: 0 n (%)
Minimal response [2, 10]: 0 n (%)
Progressive disease [2, 10]: 3 (33.3) n (%)
Stable disease [2, 10]: 4 (44.4) n (%)
Very good PR [2, 10]: 0 n (%)
Duration of response, median (95% CI) ([2]; Group 3 (moderate impairment), NE, not estimated due to censoring): NE (2.3–NE)
Complete response [2, 11]: 0 n (%)
Minimal response [2, 11]: 1 (20.0) n (%)
Progressive disease [2, 11]: 2 (40.0) n (%)
Stable disease [2, 11]: 2 (40.0) n (%)
Very good PR [2, 11]: 0 n (%)
Overall response rate ([2]; Group 4 (severe impairment), n=8): 2 (25.0) n (%)
Complete response [2, 12]: 0 n (%)
Minimal response [2, 12]: 1 (12.5) n (%)
Progressive disease [2, 12]: 2 (25.0) n (%)
Stable disease [2, 12]: 3 (37.5) n (%)
Very good PR [2, 12]: 0 n (%)
Duration of response, median (95% CI) ([2]; Group 4 (severe impairment), NE, not estimated due to censoring): NE (7.9–NE)
Duration of response, median (95% CI) ([2]; Group 5 (chronic dialysis)): 7.9 (6.5–8.5) months
Complete response [2, 13]: 0 n (%)
Minimal response [2, 13]: 0 n (%)
Progressive disease [2, 13]: 0 n (%)
Stable disease [2, 13]: 1 (25.0) n (%)
Very good PR [2, 13]: 0 n (%)
Overall response rate ([2]; Group 5 (chronic dialysis), n=8): 3 (37.5) n (%)
Complete response [2, 14]: 0 n (%)
Minimal response [2, 14]: 0 n (%)
Progressive disease [2, 14]: 0 n (%)
Stable disease [2, 14]: 4 (50.0) n (%)
Very good PR [2, 14]: 0 n (%)
Response improved to PR after the addition of dexamethasone ([2]; nine of 28 patients who received dexamethasone before each carfilzomib dose after Cycle 2): 32.1%
